# Measurements taken from patent US8637040B2, “Genus-wide chlamydial peptide vaccine antigens” (priority 2008, dated 2014).
# Assays:
# [1] = Encapsulation of Pep4 in PLGA nanoparticles and peptide release; type: physicochemical; conditions: carbonate buffer, ELISA with anti-Pep4 antiserum standard curve
# Description: One preferred approach to the preparation of peptide-loaded polylactide (PLA) or PLGA micro- and/or nanoparticles follows. Biodegradable PLA or PLGA nanoparticles (NPs) loaded with the selected peptides is prepared using a modified version of the double emulsion solvent evaporation technique, in a procedure similar to that previously described by Li and co-workers (139). […] Briefly, an aqueous solution of the peptide is emulsified in dichloromethane containing the PLGA (using an ultrasonic homogenizer), thus forming the primary water-in-oil (w/o) emulsion. The prepared w/o emulsion is then emulsified in a second aqueous phase containing polyvinyl alcohol (PVA) as stabilizer, thus resulting in the multiple w/o/w emulsion. The double emulsion is later added into a large volume of aqueous solution of PVA, and stirred for several hours to evaporate the organic solvent. The resulting nanoparticles are then collected by centrifugation and washed (removing PVA) several times before lyophilization to remove the remaining water (139,140). The powder is kept at −80° C. until use. […] Optimal peptide loading concentrations for protective immunization are determined empirically, e.g., by comparing orally delivered peptide-NP to free peptide delivered subcutaneously. […]
# [2] = system: human sera; assay: ELISA of human serum samples on 4 peptides (Example XI); type: binding
# Description: (§1) Blood was collected prior to immunizations and prior to the two boosts. Sera were tested in ELISA. The ELISA method used in the present examples, in which many if not all the parameters and conditions may be varied or modified in ways that are completely conventional in the art, is described below. • 1. 96 well plates (Immulon HBX4) were coated with 50 μl of diluted antigen (peptides at 1 μg/well made in carbonate buffer) and incubated overnight at 4° C. • 2. Unbound antigen was removed by flicking the contents of the plate into a sink without further washing. • 3. Non-specific binding was blocked or prevented by adding 300 μL/well of 4% BSA/PBS-Tween 20 (0.05%). This was allowed to incubate for 2 hour at room temperature. • 4. The plates were washed once with PBS-Tween 20 (0.05%) and 50 μl of primary antibody was added per well at appropriate dilutions. When using serum, the starting dilution was 1:40 and was further diluted by doublings to 1:80, 1:160, and 1:320 (or higher as desired). Plates were incubated for 1 hour at 37° C. • 5. Plates were washed three times with PBS-Tween (0.05%) as above and 100 μl of secondary antibody was added per well at appropriate dilutions. For alkaline phosphatase-conjugated goat anti-mouse IgG-AP, a dilution of 1:500 was used here. Plates were incubated for 1 hour at 37° C. • 6. Plates were again washed three times as above and 200 μl of substrate solution for Alkaline phosphatase (p-nitro phenyl phosphate or pNPP) was added at a concentration of 5 mg/ml. The color reaction was read in an automated microplate reader at a frequency of […] and the absorbance (or optical density) was registered (referred to as A405 or OD405) Several important observations were made in these tests against the 4 peptides: (a) all 4 peptides were immunogenic and induced increasing anti-peptide responses with subsequent boosts in all mice (except in one non-responder) (FIG. 3). […] See also FIG. 16A-16B
# Human sera were tested by PCR for expression of several chlamydial genes, by IHC against C. trachomatis-infected cells and by ELISA against several of the peptides of the present invention. Results are shown in Table 7 (below) which include results from PCR-studies for presence of DNA encoding the chlamydial Major Outer Membrane Protein (MOMP) in human peripheral blood mononuclear cells (PBMC) (which are primarily lymphocytes and monocytes) and cervical swabs
# Also shown is IHC staining of C. trachomatis-infected human HEp2 cells and binding of antibodies in the patient samples to four peptides of the present invention (Pep4, 7, 8, and 10) in ELISA.
# [3] = system: Pep4, Pep7, Pep8, Pep10; assay: Cross-reactivity between peptides in ELISA; type: binding; conditions: sera of mice immunized with a single peptide
# Description: as §1
# Both of these are category #1 peptides. […] That supports the notion that CDR1 and CDR3 of mAb2 are antigenically distinct.
# [4] = system: mice; assay: Anti-Pep4 ELISA after SC immunization with free vs. PLA-microencapsulated Pep4; type: in vivo, mouse; conditions: SC x 3; free Pep4 40 μg, Pep4-MP 10, 20 and 40 μg
# Description: FIG. 17A-17F show results in ELISA of sera of mice immunized SC with various doses of the Pep4 as immunogen antigen either as free peptide or encapsulated in PLA microparticles (Pep4-MP). MP's were loaded at levels of between about 7.5 and about 9 μg peptide per mg PLA. Δ-Δ: results of pre-bleeds (before immunization). (▴-▴: results after a single primary immunization. ◯-◯: results after 1st boost. ●-●: results after 2nd boost. ▾-▾: results at the time of terminal bleed (day 28). Each point represents the mean absorbance value (OD405) for the sera of 4 or 5 individual mice of the designated group.
# Additional studies were conducted to evaluate and compare the effects of immunization with the present peptides in free vs. microencapsulated form in PLA microparticles (MPs). Results are shown in FIGS. 17, 18A-18F and 19A-19B.
# Mice were immunized subcutaneously 3 times (primary, 1st first boost at day 14, 2nd boost at day 28) according to a schedule shown below with the indicated peptide antigen or soluble mAb2 polypeptide or were control animals that were infected but not immunized (relevant for FIG. 18A-F). Free Pep4 peptide was tested at the 40 μg dose, whereas Pep4-MP was tested at 10, 20 and 40 μg doses. Blood was collected before each immunization and at the end of the experiment (day +28).
sequence,measurement,setting,value
AFPQFRSATLLL [Pep4],release of peptide,[1],about 3.8 μg/ml/day
same,ELISA 1:40 on 4 peptides Scale: 1+-3+,[2]; human serum sample # 1,2
same,ELISA 1:40 on 4 peptides Scale: 1+-3+,[2]; human serum sample # 2,0.75
same,ELISA 1:40 on 4 peptides Scale: 1+-3+,[2]; human serum sample # 3,2.5
same,ELISA 1:40 on 4 peptides Scale: 1+-3+,[2]; human serum sample # 5,2
same,ELISA 1:40 on 4 peptides Scale: 1+-3+,[2]; human serum sample # 7,0.75
same,ELISA 1:40 on 4 peptides Scale: 1+-3+,[2]; human serum sample # 8,3
same,ELISA 1:40 on 4 peptides Scale: 1+-3+,[2]; human serum sample # 9,3
same,ELISA 1:40 on 4 peptides Scale: 1+-3+,[2]; human serum sample # 10,3
same,ELISA 1:40 on 4 peptides Scale: 1+-3+,[2]; human serum sample # 12,2
same,ELISA 1:40 on 4 peptides Scale: 1+-3+,[2]; human serum sample # 13,2
same,ELISA 1:40 on 4 peptides Scale: 1+-3+,[2]; human serum sample # 16,2
same,ELISA 1:40 on 4 peptides Scale: 1+-3+,[2]; human serum sample # 18,2.5
same,ELISA 1:40 on 4 peptides Scale: 1+-3+,[2]; human serum sample # 21,1.5
same,ELISA 1:40 on 4 peptides Scale: 1+-3+,[2]; human serum sample # 22,1.5
same,ELISA 1:40 on 4 peptides Scale: 1+-3+,[2]; human serum sample # 23,2
same,ELISA 1:40 on 4 peptides Scale: 1+-3+,[2]; human serum sample # 24,3
same,ELISA 1:40 on 4 peptides Scale: 1+-3+,[2]; human serum sample # 26,2
same,cross-reactivity of raised Abs with Pep7 (ELISA),[3],cross reacted
same,anti-Pep4 antibody responses (ELISA),[4],not as immunogenic as encapsulated Pep4 at equal or lower doses
